Measured values taken from patent US20080286785A1, “Method to predict or monitor the response of a patient to an erbb receptor drug” (AstraZeneca UK Limited, priority 2005, published 2008).
Where two headings read alike, the source gives them in different places.

Legend:
[1] = N. Engl. J. Med. 2004; 350(21):2129-2139; cited from earlier work
[2] = all of the patients treated with gefitinib, 250 mg daily orally
[3] = four patients with EGFR mutations detected in tumour samples
[4] = patients with EGFR mutations in serum
[5] = patients without EGFR mutations in serum
[6] = serum EGFR mutation + by EGFR Scorpion Kit
[7] = serum EGFR mutation + by direct sequence
[8] = serum EGFR mutation − by EGFR Scorpion Kit
[9] = serum EGFR mutation − by direct sequence

COc1cc2ncnc(Nc3ccc(F)c(Cl)c3)c2cc1OCCCN1CCOCC1 [gefitinib]
patients that have a rapid and often dramatic clinical response [1]: about 10%
Response PD (progressive disease), number of patients (NSCLC; 28 patients enrolled, RECIST): 11 n
Response PR (partial response), number of patients (NSCLC; 28 patients enrolled, RECIST): 9 n
Response SD (stable disease), number of patients (NSCLC; 28 patients enrolled, RECIST): 8 n
median OS (NSCLC; [2]): 306 days
median PFS (NSCLC; [2]): 98 days
responses to gefitinib: PD, number of patients (NSCLC; [3]): 1
responses to gefitinib: PR, number of patients (NSCLC; [3]): 2
responses to gefitinib: SD, number of patients (NSCLC; [3]): 1
median OS (NSCLC; [4]): 611 days
median PFS (NSCLC; [4]): 200 days
median OS (NSCLC; [5]): 232 days
median PFS (NSCLC; [5]): 46 days
Response to gefitinib PD, number of patients (NSCLC; [6]): 2
Response to gefitinib PR/SD, number of patients (NSCLC; [6]): 11
Response to gefitinib PD, number of patients (NSCLC; [7]): 2
Response to gefitinib PR/SD, number of patients (NSCLC; [7]): 8
Response to gefitinib PD, number of patients (NSCLC; [8]): 8
Response to gefitinib PR/SD, number of patients (NSCLC; [8]): 6
Response to gefitinib PD, number of patients (NSCLC; [9]): 8
Response to gefitinib PR/SD, number of patients (NSCLC; [9]): 9
